The target of this assay is T1, 17β-HSD10 (Homo sapiens, UniProt Q99714).
T1 construct: Histev (histidine tag with TEV site) (N, cleaved yes); made in house; host or cells: E. coli BL21-CodonPlus
T1 sequence (Q99714 1-261): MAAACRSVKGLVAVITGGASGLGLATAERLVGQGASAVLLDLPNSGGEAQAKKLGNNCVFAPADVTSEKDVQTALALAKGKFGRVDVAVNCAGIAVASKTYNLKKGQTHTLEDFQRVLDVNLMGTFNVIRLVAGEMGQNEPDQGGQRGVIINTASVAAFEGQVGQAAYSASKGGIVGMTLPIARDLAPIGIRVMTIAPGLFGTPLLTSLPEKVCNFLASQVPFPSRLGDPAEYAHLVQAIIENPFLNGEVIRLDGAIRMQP
In words: 17β-HSD10 (ABAD) enzyme inhibition assay, NADH oxidation read at 340 nm (primary screen and dose response). Particulars: for EC50 / Max. Effect (%) / Hill Slope / Max. Fit / Min. Fit: recombinant 17βHSD10 enzyme assay; for Hill Slope / Max. Fit / Min. Fit: curve fit. The class given is biochemical. On the procedure:
Cell pellets of E. coli BL21-CodonPlus cells containing Histev-17β-HSD10 protein were re-suspended for 30 min, 4° C., in lysis buffer (20 mM NaH2PO4, 30 mM imidazole, 500 mM NaCl, 10% (v/v) glycerol, pH 7.5) with the addition of complete ethylenediaminetetraacetic acid (EDTA)-free protease inhibitor tablets (Roche), lysozyme (1 mg/mL), deoxyribonuclease (DNase) (20 μg/mL) and Triton X-100 (0.1% (v/v)). Cells were lysed by passage through a cell disruptor at 30 kPSI (Constant Systems Ltd) and the lysate was cleared by centrifugation (Sorvall Evolution RC, rotor S5-34 55-34 angle, 20500 rpm, 30 min, 4° C.). Cleared lysate was filtered (0.45 μm membrane; Whatman) then applied to a Ni-nitrilotriacetic acid (NTA) (GE Healthcare) column pre-washed with lysis buffer and protein eluted with 300 mM imidazole buffer (20 mM NaH2PO4, 300 mM imidazole, 500 mM NaCl, 10% (v/v) glycerol, pH 7.5). […] Protein digestion and dialysis was carried out at 4° C. for 16 h.
Complete digestion was firstly checked by sodium dodecyl sulfate-polyacrylamide gel electrophoresis (SDS-PAGE), then fully digested protein was passed over a second Ni-column and the flow-through, containing 17β-HSD10 protein, was concentrated using a Vivaspin column (10 kDa MWCO, GE Healthcare) to ˜7 mL before final purification using gel filtration to remove imidazole (Hi-Load 16/60 Superdex 75 prep grade column, GE Healthcare, flow rate 1.5 mL/min). Protein was eluted in gel filtration buffer (10 mM trisaminomethane (Tris-HCl), 150 mM NaCl, 10% glycerol, pH 7.5) and concentrated (Vivaspin column (10 kDa molecular weight cut off (MWCO), GE Healthcare)) to 10 mg/mL. Aliquots (10 μL) were taken and flash frozen in liquid nitrogen before final storage at −80° C.
The assay buffer used contains: 10 mM Tris. HCl (pH 7.4), 150 mM NaCl, 1 mM DTT, 0.005% Tween (polysorbate 20) and 0.01% bovine serum albumin (BSA). As indicated for some experiments the assay buffer was supplemented with 100 units/ml bovine liver catalase. All experiments were conducted in clear bottom 384-well or 1536-well low volume microplates (Corning) with a final assay volume of 20 μL and the reaction progress was monitored by oxidation of NADH as determined by reduction in absorbance at 340 nm read on the EnVision plate reader (PerkinElmer).
For primary screening an endpoint assay format was adopted in which an Echo acoustic liquid dispenser (Labcyte) was used to transfer 20 nL of either reference standard, dimethylsulfoxide (DMSO) control ([…] final assay concentration (FAC)) or test compounds (10 μM FAC) to the assay plate. 10 μL of 17β-HSD10 enzyme in assay buffer (2.5 nM, FAC) was then added to the plates using the Preddator liquid handling robot (Redd and Whyte) and plates were incubated at room temperature for 15 minutes. 10 μL of substrate mixture (100 μM acetoacetyl-CoA and 100 μM NADH, FAC) was added with the Preddator. To start the reaction and the plates were left to incubate for 35 minutes at room temperature before the absorbance at 340 nm was read on the EnVision plate reader (PerkinElmer). For kinetic assay format and dose response follow up experiments the same protocol was adopted but the absorbance at 340 nm was monitored constantly for 45 minutes from immediately after the reaction was started.

Regarding `CCN(C(=O)C1CCCCN1C)c1cccc(N(C)Cc2cnc[nH]2)c1` (stereo not shown) [S2−T7, N-ethyl-N-[3-[1H-imidazol-5-ylmethyl(methyl)amino]phenyl]-1-methyl-piperidine-2-carboxamide], the EC50 was more than 20 µM and the “Max. Effect (%)” value stood at 27.9%.
As for `CC(C)CN(C(=O)c1ccccc1S(C)(=O)=O)c1cccc(N(C)Cc2c[nH]cn2)c1` [ESC1002622], the EC50 is 6.92 µM, the “Max. Effect (%)” value was 76%, the “Hill Slope” value came to 0.9 and the “Max. Fit” value is 108. For the same compound, the “Min. Fit” value is recorded as −6.
The matching figures for `CCCn1c(C(N)=O)cc2cc(-c3cn[nH]c3)ccc21` [ESC1002019]: 3.98 µM, 85%, 1.3, 93 and 2.
For the compound `O=C(c1cocn1)N1CCC[C@H]1c1ccccc1` [S1−T10, 4-{[(2S)-2-phenylpyrrolidin-1-yl]carbonyl}-1,3-oxazole], the EC50 was more than 20 µM and the “Max. Effect (%)” value turned out to be 20.5%.
As to `CC(C)CN(C(=O)c1ccccc1F)c1cccc(N(C)Cc2cn[nH]c2I)c1` [ESC1002687], the EC50 is 11 µM, the “Max. Effect (%)” value was determined as 64%, the “Hill Slope” value came to 1 and the “Max. Fit” value worked out at 100. The “Min. Fit” value is recorded as −6.
Turning to `O=C(c1nc(Br)no1)N1CCC[C@H]1c1ccccc1` [S1−T6], the EC50 was more than 20 µM and the “Max. Effect (%)” value stood at 20.5%.
Take `COc1cccc(-c2ccccc2[C@@H]2CCCN2C(=O)c2ncc[nH]2)c1` (racemic) [ESC1002600]: the EC50 is 4.37 µM, the “Max. Effect (%)” value is recorded as 75%, the “Hill Slope” value was 1.2 and the “Max. Fit” value was found to be 86. The “Min. Fit” value is 1.
As to `Cc1ccc(C(=O)Nc2cccc(N(C)Cc3cnc[nH]3)c2)cc1` [ESC1002054, N-[3-[1H-imidazol-5-ylmethyl(methyl)amino]phenyl]-4-methyl-benzamide], the concentration for a half-maximal effect (EC50) is more than 20 µM and the “Max. Effect (%)” value was 3%.
The matching figures for `COc1cccc(-c2ccccc2[C@@H]2CCCN2C(=O)c2nc[nH]n2)c1` (racemic) [ESC1002599]: more than 20 µM and 10%.
For `COc1cccc(-c2ccccc2[C@H]2CCCN2C(=O)C2CCOCC2)c1` [ESC1002435], the EC50 is more than 20 µM and the “Max. Effect (%)” value turned out to be 12%.
`COc1ccc(-c2ccccc2[C@@H]2CCCN2C(=O)c2sccc2Cl)cc1OC` (racemic) [ESC1002663]: the EC50 is 0.575 µM, the “Max. Effect (%)” value is 93%, the “Hill Slope” value was found to be 1.1 and the “Max. Fit” value is 95. Further, the “Min. Fit” value is on record as −8.
As to `O=C(c1sccc1Cl)N1CCC[C@H]1c1ccccc1-c1cccc2[nH]ncc12` (racemic) [ESC1002702], the “17β-HSD10 / ABAD activity in words (SAR discussion)” value was “less active”, the concentration giving a half-maximal response (EC50) is 1.26 µM, the “Max. Effect (%)” value worked out at 91% and the “Hill Slope” value amounted to 0.91. Further, the “Max. Fit” value is recorded as 98 and the “Min. Fit” value is given as −9.
Regarding `O=C(c1sccc1Cl)N1CCC[C@H]1c1ccccc1-c1ccc(F)c(O)c1` (single isomer, unassigned) [ESC1002838], the EC50 is 0.0513 µM, the “Max. Effect (%)” value was determined as 99%, the “Hill Slope” value was 1.2 and the “Max. Fit” value stood at 97. The “Min. Fit” value is 0.
For `Cc1ccsc1C(=O)N1CCC[C@@H]1c1ccccc1-c1ccc(C2CC2)cc1` [ESC1002422] the same measures were 0.562 µM, 93%, 1.6, 90 and 1.
With `CC(C)CN(C(=O)c1ccc(Cl)cc1F)c1cccc(N(C)Cc2cnc[nH]2)c1` [ESC1002042, 4-chloro-2-fluoro-N-[3-[1H-imidazol-5-ylmethyl(methyl)amino]phenyl]-N-isobutyl-benzamide], the concentration for a half-maximal effect (EC50) is 0.316 µM, the “Max. Effect (%)” value is 98%, the “Hill Slope” value is given as 0.8 and the “Max. Fit” value is listed as 101. The “Min. Fit” value was −6. Moreover, for the setting “primary screening, resynthesized HTS hit compounds”, the “ABAD plC50” value is listed as 6.5.
Consider `COc1cccc(-c2ccccc2[C@H]2CCCN2C(=O)Cc2ccccc2)c1` [ESC1002506], for which the EC50 was more than 20 µM and the “Max. Effect (%)” value is reported as 8%.
`Cc1ccc(C(=O)N(c2cccc(N(C)Cc3cnc[nH]3)c2)C(C)C)cc1` [ESC1002080, N-[3-[1H-imidazol-5-ylmethyl(methyl)amino]phenyl]-N-isopropyl-4-methyl-benzamide]: the EC50 is 1 µM, the “Max. Effect (%)” value was 96%, the “Hill Slope” value turned out to be 0.9 and the “Max. Fit” value is 102. The “Min. Fit” value stood at 0.
With `O=C(c1sccc1Cl)N1CCC[C@H]1c1ccccc1-c1ccc(F)c(O)c1` (racemic) [ESC1002775], the EC50 is 0.049 µM, the “Max. Effect (%)” value came to 100%, the “Hill Slope” value is 1.2 and the “Max. Fit” value is 96. Besides, the “Min. Fit” value worked out at 0.
On to `COc1ccc(C(=O)N(CC(C)C)c2cccc(N(C)Cc3c[nH]cn3)c2)c(F)c1` [ESC1002576], for which the EC50 was 0.245 µM, the “Max. Effect (%)” value is 98%, the “Hill Slope” value was found to be 1.1 and the “Max. Fit” value is on record as 97. Also, the “Min. Fit” value is −3.
For `O=C(c1sccc1Cl)N1CCC[C@H]1c1ccccc1-c1cc(O)cc(F)c1` (single isomer, unassigned) [ESC1002800], the 50% effective concentration (EC50) was more than 20 µM and the “Max. Effect (%)” value is reported as 10%.
With `COc1ccccc1C(=O)N(CC(C)C)c1cccc(N(C)Cc2c[nH]cn2)c1` [ESC1002458], the EC50 is 0.55 µM, the “Max. Effect (%)” value was determined as 96%, the “Hill Slope” value is 1 and the “Max. Fit” value is recorded as 97. Also, the “Min. Fit” value is −7.
Consider `CCN(C(=O)c1cccc(F)c1)c1cccc(N(C)Cc2cnc[nH]2)c1` [S2−T5, N-ethyl-3-fluoro-N-[3-[1H-imidazol-5-ylmethyl(methyl)amino]phenyl]benzamide], for which the EC50 is more than 20 µM and the “Max. Effect (%)” value is reported as 18.4%.
As for `CC(C)CN(C(=O)c1ccccc1F)c1cccc(N(C)Cc2c[nH]c(C3CC3)n2)c1` [ESC1002674], the EC50 was 8.32 µM, the “Max. Effect (%)” value was 59%, the “Hill Slope” value amounted to 1.2 and the “Max. Fit” value amounted to 80. Besides, the “Min. Fit” value is given as −5.
On to `O=C(c1sccc1Cl)N1CCCC1c1ccccc1-c1cccc(O)c1` (racemic) [ESC1002666, (3-chlorothiophen-2-yl)(2-(3′-hydroxy-[1,1′-biphenyl]-2-yl)pyrrolidin-1-yl)methanone], for which the 50% effective concentration (EC50) was 0.0589 µM, the “Max. Effect (%)” value came to 99%, the “Hill Slope” value is given as 1.1 and the “Max. Fit” value worked out at 98. Moreover, the “Min. Fit” value is recorded as 0.
`O=C(c1ncc[nH]1)N1CCC[C@H]1c1ccccc1` [S1−T2, 2-{[(2S)-2-phenylpyrrolidin-1-yl]carbonyl}-1H-imidazole]: the EC50 was more than 20 µM and the “Max. Effect (%)” value is given as 6.4%.

The term EC50 denotes the midpoint of the concentration-response curve.

These data come from patent US20260132123A1, “ABAD INHIBITOR COMPOUNDS” (UNIVERSITY COURT OF THE UNIVERSITY OF ST ANDREWS, priority 2021, published 2026).
